Assay results as given in article PMC8469748, “A Method for Rapid Screening, Expression, and Purification of Antimicrobial Peptides” (Microorganisms, 2021).
Entries after “also recorded” stand apart in the source; their conditions may differ.

How the values were obtained:
E. coli DH5α = assay: Inhibition zone test (agarose plate, Oxford cup); assay type: cell-based
Method: To measure AMP activity, the agarose plate method was employed. Microorganisms for inhibition testing were activated, 3–5 single colonies were picked and placed in liquid LB medium, cultured on a shaker at 37 °C for 6 h. Solid LB medium was melted by heating, 500 μL of liquid bacterial culture was added for every 100 mL of medium after cooling slightly, and the mixture was poured into a bacterial plate to solidify. Oxford cups were inserted into the solidified mixed bacterial plate, while being careful not to penetrate the medium completely, so as not to affect the penetration of the test liquid on the plate. Attention was paid to the spacing between the Oxford cups. Corresponding Oxford cups were marked and positive/negative controls (100 μL each) were added. Plates were incubated at 37 °C overnight to observe the antibacterial effects.
The E. coli DH5α mixed bacteria plate was prepared as described above. Two negative controls (HRV 3C Cleavage Buffer and 1 M NaCl) and a positive control (2 mg/mL ampicillin) were included.

E. coli = assay: MIC test (96-well plate, OD600); assay type: cell-based; details: for inhibition activity against testing microorganisms (MIC test): AMP expressed and purified in E. coli, up to 128 mg/L; for minimum concentration that inhibited an increase in the OD600 of the bacterial solution (MIC): 96-well plate, final 128 to 0.25 mg/L
Method: When measuring the minimum inhibitory concentration (MIC) of the expressed and purified AMPs, we performed the test according to the Clinical and Laboratory Standards Association. Specifically, microorganisms to be tested were activated, and five colonies were picked and separately cultured into liquid medium on a shaker (220 rpm) at 37 °C until the absorbance at 600 nm (OD600) reached 0.13–0.17; thus, corresponding to a biomass concentration of ~1 × 10^8 colony-forming units (CFU)/mL. Samples for testing were diluted to 4 mM, and two-fold serial dilutions were performed in a 96-well plate, with the concentration ranging from 100 to 0.195 μM. Each dilution (50 μL) was performed in duplicate. Next, 50 μL of microbial culture containing ~1 × 10^6 CFU/mL was added to each well. After incubating overnight at 37 °C, OD600 was measured using a microplate spectrophotometer.
Figure 8 The schematic diagram of a 96-well plate measuring MIC (data taken from three parallel experiments). Horizontal direction is AMP 1, 2, 6, 13, 16 test rows; Vertical direction 1–10 is the final concentration of 128 mg/L to 0.25 mg/L of these AMPs, respectively; 11 is the negative control; 12 is a positive control, the 20 mg/L ampicillin.
Figure 13B is a schematic diagram of the 96-well plate MIC experiment (data are from three parallel replicates). The horizontal direction is AMP13 from P. pastoris, the vertical direction is the final peptide concentration (128 mg/L to 0.25 mg/L), 11 is the negative control and 12 is the positive control (20 mg/L ampicillin).

[1] = AMP expressed in E. coli and purified, mixed bacteria LB agar plate, Oxford cup, 100 μL liquid per cup, 37 °C overnight
[2] = AMP expressed in E. coli, two-fold dilutions, overnight 37 °C, three parallel experiments

Compound | Inhibition zone (E. coli DH5α; [1]) | inhibition activity against testing microorganisms (MIC test) (E. coli) | minimum concentration that inhibited an increase in the OD600 of the bacterial solution (MIC) (E. coli; [2]) | Inhibition zone (E. coli DH5α; AMP13 produced by P. pastoris (PZEAP13), E. coli DH5α mixed bacteria plate, Oxford cup, 100 μL) | MIC (E. coli; AMP13 from P. pastoris, equated from 16 mg/L) | minimum concentration that inhibited an increase in the OD600 of the bacterial solution (MIC) (E. coli; AMP13 produced by P. pastoris (PZEAP13), three parallel replicates) | effective MIC (E. coli; AMP13 purified from P. pastoris, discussion) | Inhibition zone (E. coli DH5α; positive control, 2 mg/mL ampicillin, E. coli DH5α mixed bacteria plate, test of P. pastoris AMP13) | Inhibition zone (E. coli DH5α; positive control, ampicillin 200 mg/L, 100 μL per Oxford cup, plates of E. coli-derived AMPs)
ILPWKWPWWPWRR [AMP2, antimicrobial peptide selected from the AMP library website, expressed as CL7 fusion in E. coli and released by HRV 3C protease] | no inhibition zones | no inhibition activity; also recorded: did not exhibit detectable antibacterial activity | > 128 µg/mL |  |  |  |  |  | 
ITPATPFTPAIITEITAAVIA [AMP1, antimicrobial peptide selected from the AMP library website, expressed as CL7 fusion in E. coli and released by HRV 3C protease] | no inhibition zones | no inhibition activity; also recorded: did not exhibit detectable antibacterial activity | 128 µg/mL |  |  |  |  |  | 
GFCRCLCRRGVCRCICTR [AMP13, antimicrobial peptide selected from the AMP library website, expressed as CL7 fusion in E. coli and in P. pastoris, released by HRV 3C protease] | there was an inhibition zone |  | 32 µg/mL | showed inhibition activity; also recorded: clear circle of inhibition | 8.1 µM | 16 µg/mL | 16 µg/mL |  | 
DSHAKRHHGYKRKFHEKHHSHRGY [AMP16, antimicrobial peptide selected from the AMP library website, expressed as CL7 fusion in E. coli and released by HRV 3C protease] | there was an inhibition zone |  | 64 µg/mL |  |  |  |  |  | 
VFQFLGKIIHHVGNFVHGFSHVF [AMP6, antimicrobial peptide selected from the AMP library website, expressed as CL7 fusion in E. coli and released by HRV 3C protease] | no inhibition zones | no inhibition activity; also recorded: did not exhibit detectable antibacterial activity | > 128 µg/mL |  |  |  |  |  | 
CC1(C)S[C@@H]2[C@H](NC(=O)[C@H](N)c3ccccc3)C(=O)N2[C@H]1C(=O)O [ampicillin, reference compound] |  |  |  |  |  |  |  | there was an inhibition zone | there was an inhibition zone
